{"source": "patent US7208628B2", "about": "“Compositions and methods for the treatment of hepatitis C virus infection” (Kansas State University Research Foundation, priority 2002, dated 2007)", "biological_target": "binding of HCV-E2 to CD81 on Molt4 T cells (Hepacivirus hominis (Hepatitis C virus), UniProt P27958)", "sequence (P27958 384-715)": "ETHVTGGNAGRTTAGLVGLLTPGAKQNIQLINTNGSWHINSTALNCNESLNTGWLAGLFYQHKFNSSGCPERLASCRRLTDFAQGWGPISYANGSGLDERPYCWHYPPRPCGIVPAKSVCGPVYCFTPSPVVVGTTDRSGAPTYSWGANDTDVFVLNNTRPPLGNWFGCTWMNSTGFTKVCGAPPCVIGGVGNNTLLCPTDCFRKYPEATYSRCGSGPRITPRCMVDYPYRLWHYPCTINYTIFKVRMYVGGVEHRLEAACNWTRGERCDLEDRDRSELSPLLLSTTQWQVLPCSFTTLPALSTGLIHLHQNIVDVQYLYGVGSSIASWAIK", "sequence (P60033 whole entry, further chain)": "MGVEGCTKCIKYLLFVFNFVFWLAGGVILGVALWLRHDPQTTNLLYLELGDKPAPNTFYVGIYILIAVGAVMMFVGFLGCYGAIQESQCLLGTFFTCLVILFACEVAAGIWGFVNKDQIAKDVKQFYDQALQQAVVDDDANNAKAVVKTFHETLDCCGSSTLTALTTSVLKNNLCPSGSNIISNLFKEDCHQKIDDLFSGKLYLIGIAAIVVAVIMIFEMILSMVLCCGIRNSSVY", "experiment": "HCV-E2/CD81 binding assay on Molt4 T cells, detection with anti-E2 mAb 6F6 and flow cytometry", "parameters": "species or system human", "conditions": "for ability to inhibit the HCV-E2 binding to CD81, relative activity in words: structure-activity comparison of linker, side chain and ester against the valine benzyl ester I45DC AL-2-140", "text": "Development of a Unique HCV-E2/CD81 Binding Assay. […] The binding of HCV-E2 to CD81 has been reported by several groups (see, e.g. Allander, T., et al., “Hepatitis C virus envelope protein E2 binds to CD81 of tamarins” Virology 277:358–367, 2000). Often those studies involved interactions of purified recombinant proteins. We sought to confirm published findings and to test the ability of HCV-E2 to bind to CD81 expressed on living T cells. Various concentrations of recombinant HCV-E2 (Ala 384 to Lys 715 of the HCV polyprotein produced in CHO cells; Austral Biologicals) was incubated with Molt4 T cells and binding of HCV-E2 to the cells was detected with the anti-E2 monoclonal antibody 6F6 (Austral Biologicals) followed by flow cytometry (FIG. 1). HCV-E2 binding to Molt4 T cells is concentration dependent and easily detectable at concentrations as low as 0.3 μg/mL. This binding assay differs from the assay published by Wünschmann in that the published assay used whole virus and not recombinant […] peptide. (Wünschmann, et al, “Characterization of Hepatitis C Virus (HCV) and HCV E2 Interactions with CD81 and the Low-Density Lipoprotein Receptor” J. Virology 74:10055–10062, 2000).\nEffect of I45DCs on HCV-E2 binding to CD81 on T cells. […] Binding was measured by using the novel and sensitive method of the present invention for the detection of binding between the HCV envelope protein E2 and its cellular receptor CD81 on living human T cells. This experimental approach was employed in the evaluation of a series of newly synthesized I45DCs.\nHCV-E2 was pre-incubated with or without […] of the indicated compound for 30 minutes at 37° C. prior to addition of HCV-E2 to Molt4 cells and detection as described above. […] The approximate EC50 of 19 was determined by conducting the same type of experiment in the presence of a 1:2 titration of 19 from […] (FIG. 5).", "data": [{"smiles": "CCN(CCN(CC)C(=O)c1nc[nH]c1C(=O)N[C@H](C(=O)OCc1ccccc1)C(C)C)C(=O)c1nc[nH]c1C(=O)N[C@H](C(=O)OCc1ccccc1)C(C)C", "note": "[Compound 19]", "values": [{"measurement": "IC50", "setting": "CD81 expressed on human T cells, 1:2 titration of compound, FIG. 5, read-out: approximate IC50 value for blocking binding of HCV-E2 to CD81", "result": "~45", "unit": "µM"}, {"measurement": "bioactivity in the HCV-E2 binding assay", "setting": "HCV-E2 pre-incubated with 500 mM compound for 30 minutes at 37° C. before addition to Molt4 cells", "result": "bioactivity in the sub-millimolar range"}, {"measurement": "ability to inhibit the HCV-E2 binding to CD81, relative activity in words", "result": "most active compound to date"}, {"measurement": "ability to inhibit the HCV-E2 binding to CD81, relative activity in words", "setting": "listed as AL-2-140", "result": "most active"}]}]}
